In publication PMC8878468, “Image-Based Annotation of Chemogenomic Libraries for Phenotypic Screening” (Molecules, 2022):
Counter-ions that a name gives are not always drawn.

Test system: U2OS cells
Test: Multiplex high-content protocol (nuclei gating, tubulin, mitochondrial mass, membrane permeability)
Format: cell-based, human
Conditions: for healthy nuclei (healthy cells) / increase in mitochondrial mass in comparison to DMSO / tubulin effect: 10 µM; for increase in mitochondrial mass in comparison to DMSO / tubulin effect: healthy nuclei only; for marked for tubulin effects while crossing no other phenotypic threshold / mitochondrial mass increase detected: threshold > 50%; for viability at 1 µM: Homo sapiens, read-out: healthy nuclei
Description: Using the CQ1 high-content confocal microscope (Yokogawa), cellular shape and fluorescence was measured before and 12 h as well as 24 h after compound treatment. All compounds were diluted in DMSO to a concentration of 10 mM.
The rather large spacing distance was used to create a robust readout, compensating potential plate variations and enabling automated screening without the use of autofocus. The overlap of the fluorescence emission spectra of the dyes was neglectable for all but the MitoTracker Red and Annexin V Alexa Fluor 680 (Supplementary Figure S9).
All images were analyzed using the CellPathfinder software (Yokogawa). Segmentation of cells was performed as described earlier. First, the cells are classified in Hoechst High Intensity Objects or Normal Intensity Objects (Supplementary Table S7). All normal gated cells are further classified in healthy, fragmented or pyknosed nuclei (Supplementary Table S7). The pyknosed cells are gated in mitotic or apoptotic cells using seven features for the cell body and five features for the cell nuclei according to their Annexin V staining intensity (Supplementary Table S7). All cells that were classified as including a healthy nucleus are further gated into three phenotypic classes. […] Growth rate was calculated against non-treated cells and cells treated with DMSO 0.1% [61].

## c1ccc2oc(-c3csc(C4CCN(Cc5nc6ncccc6[nH]5)CC4)n3)cc2c1 [BAY-179]
U2OS, 24 h
  healthy nuclei (healthy cells): over 80%
  increase in mitochondrial mass in comparison to DMSO: over 60%

## CCNc1cc(NC2CCC(O)CC2)nc(Nc2ccc3c(ccn3Cc3ccccc3)c2)n1 (centres unmarked) [CINK4]
U2OS, 1 µM
  marked for tubulin effects while crossing no other phenotypic threshold: marked to have tubulin effects

## CC[C@@H]1C(=O)N(C)c2cnc(Nc3ccc(C(=O)N[C@H]4CC[C@H](N5CCN(CC6CC6)CC5)CC4)cc3OC)nc2N1C(C)C [volasertib]
U2OS, 1 µM, 24 h
  viability at 1 µM: ≤ 40%

## Cc1cc(C)cc(-c2cnc3cc(Cl)c(-c4cccc(O)c4)cc3c2OCCCN)c1 [TC-G 1003]
U2OS, 1 µM
  mitochondrial mass increase detected: mitochondrial mass increase

## CC(C)Oc1ccccc1C(=O)Nc1ccccc1C(=O)Nc1cccc(S(=O)(=O)C(F)(F)F)c1 [ML-290]
U2OS, 1 µM
  mitochondrial mass increase detected: mitochondrial mass increase

## CN([C@@H](Cc1ccc(OS(=O)(=O)c2cccc3cnccc23)cc1)C(=O)N1CCN(c2ccccc2)CC1)S(=O)(=O)c1cccc2cnccc12 [KN-62]
U2OS, 1 µM
  tubulin effects: > 90%

## Nc1c(C(=O)NCc2ccc(C(=O)NCCCC3CCCCC3)cc2)cnn1-c1ccccc1 [SR-318]
U2OS, 1 µM
  marked for tubulin effects while crossing no other phenotypic threshold: marked to have tubulin effects
U2OS, 24 h
  healthy nuclei (healthy cells): over 80%
  increase in mitochondrial mass in comparison to DMSO: over 60%
  tubulin effect: more than 90%

## COc1ncc(-c2ccc3nccc(-c4ccnnc4)c3c2)cc1NS(=O)(=O)c1ccc(F)cc1F [omipalisib]
U2OS, 1 µM, 24 h
  viability at 1 µM: ≤ 40%
U2OS, 1 µM
  decrease of healthy nuclei count: more than 60%

## Cc1c(P(=S)(c2ccccc2)c2ccccc2)n2ccccc2[n+]1C/C=C/c1ccccc1 [ML154]
U2OS, 1 µM, 24 h
  viability at 1 µM: ≤ 40%

## C=CCn1c(=O)c2cnc(Nc3ccc(N4CCN(C)CC4)cc3)nc2n1-c1cccc(C(C)(C)O)n1 [adavosertib]
U2OS, 1 µM, 24 h
  viability at 1 µM: ≤ 40%

## CN1CCN(Cc2ccc(Nc3ncc(Cl)c(Nc4ccccc4S(=O)(=O)N(C)C)n3)cc2)CC1 [TP0903]
U2OS, 1 µM, 24 h
  viability at 1 µM: ≤ 40%
U2OS, 1 µM
  decrease of healthy nuclei count: more than 60%

## COc1cc2c(Nc3ccc(NC(=O)c4ccccc4)cc3)ncnc2cc1OCCCN1CCOCC1 [ZM447439]
U2OS, 1 µM
  marked for tubulin effects while crossing no other phenotypic threshold: marked to have tubulin effects

## C=CC(=O)Nc1cccc(Oc2nc(Nc3ccc(N4CCN(C)CC4)cc3OC)ncc2Cl)c1 [WZ-4002]
1 µM, 12 h
  effect on tubulin: effect on tubulin
U2OS, 1 µM, 24 h
  membrane permeabilization effects: membrane permeabilization

## Nc1ncnc2c1c(-c1cccc(OCc3ccccc3)c1)cn2[C@H]1C[C@@H](CN2CCC2)C1 [NVP-AEW541]
U2OS, 1 µM
  mitochondrial mass increase detected: mitochondrial mass increase

## CCN1CCN(c2ccc(Nc3cc(N(C)C(=O)Nc4c(Cl)c(OC)cc(OC)c4Cl)ncn3)cc2)CC1 [infigratinib]
U2OS, 1 µM, 24 h
  viability at 1 µM: ≤ 40%

## CCC1=C[C@@H]2CN(C1)Cc1c([nH]c3ccccc13)[C@@](C(=O)OC)(c1cc3c(cc1OC)N(C)[C@H]1[C@@](O)(C(=O)OC)[C@H](OC(C)=O)[C@]4(CC)C=CCN5CC[C@]31[C@@H]54)C2 [vinorelbine tartrate]
U2OS, 24 h
  tubulin effect: increased tubulin effects

## Cc1cc(C)c(-n2ccn3nc(-c4cccnc4)cc23)cc1NC(=O)c1cc(C#N)cc(S(F)(F)(F)(F)F)c1 [BAY-826]
U2OS, 1 µM
  marked for tubulin effects while crossing no other phenotypic threshold: marked to have tubulin effects

## C[C@@]1(C(=O)Nc2ccc(F)nc2)CCCN1c1nc(Nc2cc(C3CC3)n[nH]2)c2cccn2n1 [BMS-754807]
U2OS, 1 µM, 24 h
  viability at 1 µM: ≤ 40%

## Cc1[nH]c(/C=C2\C(=O)Nc3ccc(S(=O)(=O)N(C)c4cccc(Cl)c4)cc32)c(C)c1C(=O)N1CCN(C)CC1 [SU11274]
U2OS, 1 µM
  marked for tubulin effects while crossing no other phenotypic threshold: marked to have tubulin effects

## CN1CCCC(n2nc(Cc3ccc(Cl)cc3)c3ccccc3c2=O)CC1 (centres unmarked) [azelastine]
U2OS, 1 µM
  mitochondrial mass increase detected: mitochondrial mass increase

## CCOc1cc(C(=O)N2CCC(N3CCN(C)CC3)CC2)ccc1Nc1ncc2c(n1)N(C1CCCC1)c1ccccc1C(=O)N2C [XMD17-109]
U2OS, 1 µM
  mitochondrial mass increase detected: mitochondrial mass increase

## Nc1ccc(C(=O)Nc2cccc(-c3nc(N4CCOCC4)c4oc5ncccc5c4n3)c2)cn1 [YM-201636]
U2OS, 1 µM
  marked for tubulin effects while crossing no other phenotypic threshold: marked to have tubulin effects
